Activity calls are given as the source filed them.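 How the source made its calls: active means tumour findings in long-term animal cancer tests in more than one sex, species or organ; inactive means no tumour finding and more than one negative test.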 Where a SMILES comes first, the peptide text is derived from it.

This data set in a line: DSSTox (CPDBAS) Carcinogenic Potency Database Summary MultiCellCall Results. Conditions: animal carcinogenicity bioassays, multi-cell call summary. An excerpt:
The Carcinogenic Potency Database (CPDB) is a unique and widely used international resource of the results of over 6500 chronic, long-term animal cancer tests on over 1500 chemical substances. The CPDB provides easy access to the bioassay literature, with qualitative and quantitative analyses of both positive and negative experiments that have been published over the past 50 years in the general literature and by the National Cancer Institute/National Toxicology Program. The CPDB standardizes the diverse literature of cancer bioassays that vary widely in protocol, histopathological examination and nomenclature, and in the published author's choices of what information to provide in their papers. Results are reported in the CPDB for tests in rats, mice, hamsters, dogs, and nonhuman primates, and are based on the most positive result among all experiments for each sex-species. The DSSTox CPDBAS (all species) file incorporates data from the CPDB Summary Tables for the full list of over 1500 chemical substances tested in at least one species. A summary MultiCellCall, based on experimental bioassay results of one or more species, is provided in the DSSTox CPDBAS file (see Source URL) for more than 1150 chemical substances.
Associated TD50 values and tumor site details for the relevant species/sex experiment supporting the overall CPDBAS MultiSiteCall are provided in the full DSSTox CPDBAS file (see Comment) and the corresponding CPDBAS Species Bioassay in PubChem. ActivityScore is computed as follows: multispecies=50, multisex=30, multisite=20, with combination scores computed as sums of these values, e.g. multispecies+multisite=70.
Take `CN(C)CCC(c1ccc(Cl)cc1)c1ccccn1` (stereo not given): the outcome was “inactive; multisex inactive; multispecies inactive”.
With `CN(C)CCN(Cc1cccs1)c1ccccn1` the entry was “active; multisex active”; with `C=COC(N)=O`, “active; multisite active; multisex active”.
Under `[O]=[Mo](=[O])=[O]` stands “active; multisex active”; under `N[C@@H](CCC(=O)O)C(=O)O`, “inactive; multisex inactive; multispecies inactive”.
Under `Nc1ccc2nc3ccccn3c2n1` stands “active; multisite active; multisex active; multispecies active”.
On to `C[C@](N)(Cc1ccc(O)c(O)c1)C(=O)O`, for which the outcome is “inactive; multisex inactive; multispecies inactive”.
`O=c1[nH]c(=O)n(C2CCCO2)cc1F` (stereo not given): the outcome is “inactive; multisex inactive; multispecies inactive”.
Turning to `O[C@H]([C@H](O)[C@@H](O)CBr)[C@H](O)CBr`, the outcome was “active; multisite active; multisex active; multispecies active”.
With `CN1CCCC1=O` the entry was “active; multisex active”; with `O=CCCCC=O`, “inactive; multisex inactive; multispecies inactive”; with `CCCCNC(N)=O`, “inactive; multisex inactive; multispecies inactive”.
With `CCCN(CCC)c1c([N+](=O)[O-])cc(C(F)(F)F)cc1[N+](=O)[O-]`, the outcome is “active; multisite active”.
Under `CC(CCl)OC(C)CCl` (stereo not given) stands “active; multisite active; multisex active”; under `CCN(Cc1cccc(S(=O)(=O)O)c1)c1ccc(C(=C2C=CC(=[N+](CC)Cc3cccc(S(=O)(=O)O)c3)C=C2)c2ccccc2S(=O)(=O)[O-])cc1`, “inactive; multisex inactive; multispecies inactive”; under `CC(=O)Nc1ccc(CC(=O)O)cc1`, “inactive; multisex inactive; multispecies inactive”.
As to `CCCCN(N)CCCC`, the outcome is “active; multisite active; multisex active”.
With `Cc1cn([C@H]2C[C@H](N=[N+]=[N-])[C@@H](CO)O2)c(=O)[nH]c1=O` the entry was “active; multispecies active”; with `O=P(OCC(Br)CBr)(OCC(Br)CBr)OCC(Br)CBr` (stereo not given), “active; multisite active; multisex active; multispecies active”.
For `C[C@@H]1CCC[C@H](C)N1CCCC(O)(c1ccccc1)c1ccccn1` (stereo not given in full), the outcome was “inactive; multisex inactive; multispecies inactive”.
For the compound `C=CCN(N)CC=C`, the outcome is “active; multisite active; multisex active”.
`NC(=O)N(CCc1ccccc1)N=O`: the outcome is “active; multisite active; multisex active”.
Under `COP(=S)(OC)SCn1nnc2ccccc2c1=O` stands “inactive; multisex inactive; multispecies inactive”; under `COc1cc2c(c3oc(=O)c4c(c13)CCC4=O)C1C=COC1O2` (stereo not given), “active; multisite active; multisex active; multispecies active”; under `O=[As](O)(O)O`, “inactive; multispecies inactive”.
With `Nc1ccc(N)c2c1C(=O)c1c(N)ccc(N)c1C2=O` the entry was “active; multisex active”; with `Nc1ccc(Oc2ccc(N)cc2)cc1`, “active; multisite active; multisex active; multispecies active”; with `Cc1nnc2n1-c1sc(CCc3ccc(CC(C)C)cc3)cc1C(c1ccccc1Cl)=NC2C` (stereo not given), “inactive; multisex inactive”.
`O=NN(CCCl)C(=O)N[C@@H]1[C@@H](O)[C@H](O)[C@@H](CO)O[C@@H]1O`: the outcome was “active; multisex active”.
Under `C=CCNNCC=C` stands “active; multisex active”; under `Cc1ccc(N)cc1`, “active; multisex active”; under `N[C@@H](Cc1cnc[nH]1)C(=O)O`, “inactive; multisex inactive”.
Under `c1ccc(NNc2ccccc2)cc1` stands “active; multisite active; multisex active; multispecies active”.
With `CN(Cc1cnc2nc(N)nc(N)c2n1)c1ccc(C(=O)N[C@@H](CCC(=O)O)C(=O)O)cc1`, the outcome was “inactive; multisex inactive; multispecies inactive”.
With `NNC(=O)c1ccccc1` the entry was “active; multisite active; multisex active”; with `O=CNc1nc(-c2ccc([N+](=O)[O-])o2)cs1`, “active; multisite active; multisex active; multispecies active”.
Consider `C/[N+]([O-])=N/CO[C@@H]1O[C@H](CO)[C@@H](O)[C@H](O)[C@H]1O`, for which the outcome is “active; multisite active; multispecies active”.
As for `COc1cc(/C=C/C(=O)O[C@H]2CC[C@]34C[C@]35CC[C@]3(C)[C@@H]([C@H](C)CCC=C(C)C)CC[C@@]3(C)[C@@H]5CC[C@H]4C2(C)C)ccc1O`, the outcome was “inactive; multisex inactive; multispecies inactive”.
Under `O=NN1CC=CCC1` stands “active; multisite active”; under `C/C=C/C=C/C=O`, “active; multisex active; multispecies active”; under `CN(C)C=O`, “inactive; multisex inactive; multispecies inactive”.
Under `Cc1cc(Cl)ccc1N` stands “active; multisex active”; under `O=NN1CCCCCCC1`, “active; multisite active”; under `Nc1ccc(NCCO)c([N+](=O)[O-])c1`, “inactive; multisex inactive; multispecies inactive”.
Consider `C1C2OC2C2C1C1CC2C2OC12` (stereo not given), for which the outcome is “inactive; multisex inactive; multispecies inactive”.
Turning to `CCCCOC(=O)COc1ccc(Cl)cc1Cl`, the outcome is “inactive; multisex inactive”.
With `C=C1C[C@@]23CC[C@H]4[C@@](C)(CCC[C@@]4(C)C(=O)O[C@@H]4O[C@H](CO)[C@@H](O)[C@H](O)[C@H]4O)[C@@H]2CC[C@]1(O[C@@H]1O[C@H](CO)[C@@H](O)[C@H](O)[C@H]1O[C@@H]1O[C@H](CO)[C@@H](O)[C@H](O)[C@H]1O)C3` the entry was “inactive; multisex inactive”; with `C=CCOc1ccccc1OCC(O)CNC(C)C` (stereo not given), “inactive; multisex inactive; multispecies inactive”; with `ClC1C2(Cl)C3C4C5OC5C5C4C1(Cl)C(Cl)(C53)C2(Cl)Cl` (stereo not given), “inactive; multisex inactive; multispecies inactive”.
Under `O=P1(NCCCl)OCCCN1CCCl` (stereo not given) stands “active; multisite active; multisex active; multispecies active”.
With `CC(Oc1c(Cl)cccc1Cl)C1=NCCN1` (stereo not given) the entry was “inactive; multisex inactive”; with `NNc1ccc(C(=O)O)cc1`, “active; multisex active”.
Regarding `CN(C)CNc1nnc(/C=C/c2ccc([N+](=O)[O-])o2)o1`, the outcome was “active; multisite active”.
With `C=CC` the entry was “inactive; multisex inactive; multispecies inactive”; with `CNCCc1ccc(OC(=O)C(C)C)c(OC(=O)C(C)C)c1`, “inactive; multisex inactive”.
With `OC[C@@H](O)[C@@H](O)[C@H](O)[C@H](O)CO[C@H]1O[C@H](CO)[C@@H](O)[C@H](O)[C@H]1O` the entry was “inactive; multisex inactive”.
Take `COC(=O)[C@H](Cc1ccccc1)NC(=O)[C@@H](N)CC(=O)O` (H-Asp-Phe-OMe): the outcome is “inactive; multisex inactive”.
With `Nc1nc(N)c2nc(-c3ccccc3)c(N)nc2n1` the entry was “active; multisex active”; with `Cn1c(=O)c2c(ncn2C)n(C)c1=O`, “inactive; multisex inactive; multispecies inactive”.
With `CC(=O)NNC(=O)c1ccncc1` the entry was “active; multisex active”.

The values above are taken from PubChem BioAssay AID1205 (EPA DSSTox, 2008).
